Experimental data: US20040002425A1, “Triketone derivatives and herbicides” (Idemitsu Kosan Co., Ltd., priority 1998, published 2004)

System: Transplanted paddy rice plant
Test: Biological Test 1 (treatment on the 3rd day after transplantation): chemical injury to paddy rice
Assay type: in vivo
Design: scale not given here
Conditions: Treatment performed 3 days after transplantation
Method: (1) Preparation of Herbicide
Talc (57 parts by weight) and bentonite (40 parts by weight), both serving as carriers, and sodium alkylbenzenesulfate (3 parts by weight) serving as a surfactant were homogeneously ground and mixed to thereby obtain a carrier for water-dispersible powder.
Subsequently, to the water-dispersible powder (90 parts by weight), the triketone derivative (compound No. A-1) produced in Example I-1 (10 parts by weight) was added, and the resultant mixture was homogeneously ground and mixed to thereby obtain a herbicide.
(i) Biological Test 1 (Soaking in Water/Treatment on the 3rd Day After Transplantation)
A Wagner pot (1/2000 are) was filled with paddy soil, and seeds of barnyard grass were planted on the surface layer of the soil, and further, rice seedlings grown to the 2.5-leaf stage were transplanted.
Subsequently, water was poured in the pot to a height of 3 cm above the soil surface, and placed in a greenhouse where the temperature was maintained at 20-25° C., to thereby grow the plant under suitable conditions.
On the 3rd day after transplantation, the herbicide prepared in (1) above was applied to the plant in a predetermined amount. On the 30th day after treatment with the herbicide, weed-killing ratio, herbicidal effect, and extent of chemical injury to paddy rice were examined.
In Biological tests 1 and 2, herbicidal effect and extent of chemical injury were evaluated according to the below-described standards.
3) Chemical Injury to Paddy Rice
Chemical injury to paddy rice was evaluated according to the following criteria.

## Cc1ccc(SC2=C(C(=O)c3ccc4c(c3Cl)CCS4(=O)=O)C(=O)CCC2)cc1 [B-14, 4-chloro-5-[3-(4-methylphenyl)thio-1-oxocyclohexan-2-yl]carbonyl-2,3-dihydrobenzothiophene-1,1-dioxide]
Dose 100 g/ha
  Chemical injury, Transplanted paddy rice plant: 0
Dose 200 g/ha
  Chemical injury, Transplanted paddy rice plant: 0

## Cc1cccc(SC2=C(C(=O)c3ccc4c(c3Cl)CCS4(=O)=O)C(=O)CCC2)c1 [B-15, 4-chloro-5-[3-(3-methylphenyl)thio-1-oxocyclohexan-2-yl]carbonyl-2,3-dihydrobenzothiophene-1,1-dioxide]
Dose 100 g/ha
  Chemical injury, Transplanted paddy rice plant: 0
Dose 200 g/ha
  Chemical injury, Transplanted paddy rice plant: 0

## Cc1ccccc1SC1=C(C(=O)c2ccc3c(c2Cl)CCS3(=O)=O)C(=O)CCC1 [B-16]
Dose 100 g/ha
  Chemical injury, Transplanted paddy rice plant: 0
Dose 200 g/ha
  Chemical injury, Transplanted paddy rice plant: 0

## O=C1CCCC(Sc2ccccc2Cl)=C1C(=O)c1ccc2c(c1Cl)CCS2(=O)=O [B-17]
Dose 100 g/ha
  Chemical injury, Transplanted paddy rice plant: 0
Dose 200 g/ha
  Chemical injury, Transplanted paddy rice plant: 0

## CC(C)c1ccccc1SC1=C(C(=O)c2ccc3c(c2Cl)CCS3(=O)=O)C(=O)CCC1 [B-18]
Dose 100 g/ha
  Chemical injury, Transplanted paddy rice plant: 0
Dose 200 g/ha
  Chemical injury, Transplanted paddy rice plant: 0

## COC(=O)c1ccccc1SC1=C(C(=O)c2ccc3c(c2Cl)CCS3(=O)=O)C(=O)CCC1 [B-19]
Dose 100 g/ha
  Chemical injury, Transplanted paddy rice plant: 0
Dose 200 g/ha
  Chemical injury, Transplanted paddy rice plant: 0

## COc1ccc(SC2=C(C(=O)c3ccc4c(c3Cl)CCS4(=O)=O)C(=O)CCC2)cc1 [B-20]
Dose 100 g/ha
  Chemical injury, Transplanted paddy rice plant: 0
Dose 200 g/ha
  Chemical injury, Transplanted paddy rice plant: 0

## O=C1CCCC(Sc2ccc(Br)cc2)=C1C(=O)c1ccc2c(c1Cl)CCS2(=O)=O [B-21]
Dose 100 g/ha
  Chemical injury, Transplanted paddy rice plant: 0
Dose 200 g/ha
  Chemical injury, Transplanted paddy rice plant: 0

## C=CCSC1=C(C(=O)c2ccc3c(c2Cl)CCS3(=O)=O)C(=O)CCC1 [B-22, 4-chloro-5-[3-(3-propenyl)thio-1-oxocyclohexan-2-yl]carbonyl-2,3-dihydrobenzothiophene-1,1-dioxide]
Dose 100 g/ha
  Chemical injury, Transplanted paddy rice plant: 0
Dose 200 g/ha
  Chemical injury, Transplanted paddy rice plant: 0

## CC(C)(C)SC1=C(C(=O)c2ccc3c(c2Cl)CCS3(=O)=O)C(=O)CCC1 [B-23]
Dose 100 g/ha
  Chemical injury, Transplanted paddy rice plant: 0
Dose 200 g/ha
  Chemical injury, Transplanted paddy rice plant: 0

## CS(=O)(=O)C1=C(C(=O)c2ccc3c(c2Cl)CCS3(=O)=O)C(=O)CCC1 [B-24]
Dose 100 g/ha
  Chemical injury, Transplanted paddy rice plant: 0
Dose 200 g/ha
  Chemical injury, Transplanted paddy rice plant: 0

## CC1CC(=O)C(C(=O)c2ccc3c(c2Cl)CCS3(=O)=O)=C(Cl)C1 (stereo not drawn) [B-25]
Dose 100 g/ha
  Chemical injury, Transplanted paddy rice plant: 0
Dose 200 g/ha
  Chemical injury, Transplanted paddy rice plant: 1

## CC1CC(=O)C(C(=O)c2ccc3c(c2Cl)CCS3(=O)=O)=C(Sc2ccccc2)C1 (stereo not drawn) [B-26]
Dose 100 g/ha
  Chemical injury, Transplanted paddy rice plant: 0
Dose 200 g/ha
  Chemical injury, Transplanted paddy rice plant: 0

## CCS(=O)(=O)C1=C(C(=O)c2ccc3c(c2Cl)CCS3(=O)=O)C(=O)CCC1 [B-27]
Dose 100 g/ha
  Chemical injury, Transplanted paddy rice plant: 0
Dose 200 g/ha
  Chemical injury, Transplanted paddy rice plant: 0

## CCCS(=O)(=O)C1=C(C(=O)c2ccc3c(c2Cl)CCS3(=O)=O)C(=O)CCC1 [B-28]
Dose 100 g/ha
  Chemical injury, Transplanted paddy rice plant: 0
Dose 200 g/ha
  Chemical injury, Transplanted paddy rice plant: 0

## CC(C)S(=O)(=O)C1=C(C(=O)c2ccc3c(c2Cl)CCS3(=O)=O)C(=O)CCC1 [B-29]
Dose 100 g/ha
  Chemical injury, Transplanted paddy rice plant: 0
Dose 200 g/ha
  Chemical injury, Transplanted paddy rice plant: 0

## CCCCS(=O)(=O)C1=C(C(=O)c2ccc3c(c2Cl)CCS3(=O)=O)C(=O)CCC1 [B-30]
Dose 100 g/ha
  Chemical injury, Transplanted paddy rice plant: 0
Dose 200 g/ha
  Chemical injury, Transplanted paddy rice plant: 0

## O=C1CCCC(S(=O)(=O)c2ccccc2)=C1C(=O)c1ccc2c(c1Cl)CCS2(=O)=O [B-31]
Dose 100 g/ha
  Chemical injury, Transplanted paddy rice plant: 0
Dose 200 g/ha
  Chemical injury, Transplanted paddy rice plant: 0

## Cc1ccccc1S(=O)(=O)C1=C(C(=O)c2ccc3c(c2Cl)CCS3(=O)=O)C(=O)CCC1 [B-32]
Dose 100 g/ha
  Chemical injury, Transplanted paddy rice plant: 0
Dose 200 g/ha
  Chemical injury, Transplanted paddy rice plant: 0

## Cc1cccc(S(=O)(=O)C2=C(C(=O)c3ccc4c(c3Cl)CCS4(=O)=O)C(=O)CCC2)c1 [B-33]
Dose 100 g/ha
  Chemical injury, Transplanted paddy rice plant: 0
Dose 200 g/ha
  Chemical injury, Transplanted paddy rice plant: 0

## Cc1ccc(S(=O)(=O)C2=C(C(=O)c3ccc4c(c3Cl)CCS4(=O)=O)C(=O)CCC2)cc1 [B-34]
Dose 100 g/ha
  Chemical injury, Transplanted paddy rice plant: 0
Dose 200 g/ha
  Chemical injury, Transplanted paddy rice plant: 0

## O=C1CCCC(S(=O)(=O)c2ccccc2Cl)=C1C(=O)c1ccc2c(c1Cl)CCS2(=O)=O [B-35]
Dose 100 g/ha
  Chemical injury, Transplanted paddy rice plant: 0
Dose 200 g/ha
  Chemical injury, Transplanted paddy rice plant: 0

## CC(C)c1ccccc1S(=O)(=O)C1=C(C(=O)c2ccc3c(c2Cl)CCS3(=O)=O)C(=O)CCC1 [B-36]
Dose 100 g/ha
  Chemical injury, Transplanted paddy rice plant: 0
Dose 200 g/ha
  Chemical injury, Transplanted paddy rice plant: 0

## COc1ccc(S(=O)(=O)C2=C(C(=O)c3ccc4c(c3Cl)CCS4(=O)=O)C(=O)CCC2)cc1 [B-37]
Dose 100 g/ha
  Chemical injury, Transplanted paddy rice plant: 0
Dose 200 g/ha
  Chemical injury, Transplanted paddy rice plant: 0

## C=CCS(=O)(=O)C1=C(C(=O)c2ccc3c(c2Cl)CCS3(=O)=O)C(=O)CCC1 [B-38, 4-chloro-5-[3-(3-propenyl)sulfonyl-1-oxocyclohexan-2-yl]carbonyl-2,3-dihydrobenzothiophene-1,1-dioxide]
Dose 100 g/ha
  Chemical injury, Transplanted paddy rice plant: 0
Dose 200 g/ha
  Chemical injury, Transplanted paddy rice plant: 0

## CC(C)(C)S(=O)(=O)C1=C(C(=O)c2ccc3c(c2Cl)CCS3(=O)=O)C(=O)CCC1 [B-39]
Dose 100 g/ha
  Chemical injury, Transplanted paddy rice plant: 0
Dose 200 g/ha
  Chemical injury, Transplanted paddy rice plant: 0

## O=C1CCCC(S(=O)(=O)Cc2ccccc2)=C1C(=O)c1ccc2c(c1Cl)CCS2(=O)=O [B-40]
Dose 100 g/ha
  Chemical injury, Transplanted paddy rice plant: 0
Dose 200 g/ha
  Chemical injury, Transplanted paddy rice plant: 0

## O=C1CCCC(S(=O)(=O)c2ccc(Br)cc2)=C1C(=O)c1ccc2c(c1Cl)CCS2(=O)=O [B-42]
Dose 100 g/ha
  Chemical injury, Transplanted paddy rice plant: 0
Dose 200 g/ha
  Chemical injury, Transplanted paddy rice plant: 0

## O=C1CCCC(S(=O)(=O)c2ccc(O)cc2)=C1C(=O)c1ccc2c(c1Cl)CCS2(=O)=O [B-43]
Dose 100 g/ha
  Chemical injury, Transplanted paddy rice plant: 0
Dose 200 g/ha
  Chemical injury, Transplanted paddy rice plant: 0

## COC(=O)c1ccccc1S(=O)(=O)C1=C(C(=O)c2ccc3c(c2Cl)CCS3(=O)=O)C(=O)CCC1 [B-44]
Dose 100 g/ha
  Chemical injury, Transplanted paddy rice plant: 0
Dose 200 g/ha
  Chemical injury, Transplanted paddy rice plant: 0

## CC(=O)c1ccc(SC2=C(C(=O)c3ccc4c(c3Cl)CCS4(=O)=O)C(=O)CCC2)cc1 [B-45, 4-chloro-5-[3-(4-acetylphenyl)thio-1-oxocyclohexan-2-yl]carbonyl-2,3-dihydrobenzothiophene-1,1-dioxide]
Dose 100 g/ha
  Chemical injury, Transplanted paddy rice plant: 0
Dose 200 g/ha
  Chemical injury, Transplanted paddy rice plant: 0

## CC(=O)c1ccc(S(=O)(=O)C2=C(C(=O)c3ccc4c(c3Cl)CCS4(=O)=O)C(=O)CCC2)cc1 [B-46]
Dose 100 g/ha
  Chemical injury, Transplanted paddy rice plant: 0
Dose 200 g/ha
  Chemical injury, Transplanted paddy rice plant: 0

## Cc1c(C(=O)C2=C(Cl)CCCC2=O)ccc2c1CCS2(=O)=O [B-47]
Dose 100 g/ha
  Chemical injury, Transplanted paddy rice plant: 0
Dose 200 g/ha
  Chemical injury, Transplanted paddy rice plant: 0

## O=C1CCCC(Sc2ccccc2O)=C1C(=O)c1ccc2c(c1Cl)CCS2(=O)=O [B-48]
Dose 100 g/ha
  Chemical injury, Transplanted paddy rice plant: 0
Dose 200 g/ha
  Chemical injury, Transplanted paddy rice plant: 0

## O=C1CCCC(S(=O)(=O)c2ccccc2O)=C1C(=O)c1ccc2c(c1Cl)CCS2(=O)=O [B-49]
Dose 100 g/ha
  Chemical injury, Transplanted paddy rice plant: 0
Dose 200 g/ha
  Chemical injury, Transplanted paddy rice plant: 0

## COCCOC1=C(C(=O)c2ccc3c(c2Cl)CCS3(=O)=O)C(=O)CCC1 [B-53]
Dose 100 g/ha
  Chemical injury, Transplanted paddy rice plant: 0
Dose 200 g/ha
  Chemical injury, Transplanted paddy rice plant: 0
